ChEMBL document CHEMBL1149448, “Synthesis and structure-activity relationships of a new series of 2alpha-substituted trans-4,5-dimethyl-4-(3-hydroxyphenyl)piperidine as mu-selective opioid antagonists” (Bioorg Med Chem Lett, 2006)

What was measured:
[1] = biological target: T1, Mu-type opioid receptor (Homo sapiens, UniProt P35372); test: Inhibition of loperamide-stimulated [35S]GTP-gamma-S binding to membranes containing mu opioid receptor; assay type: functional
[2] = biological target: T1, Mu-type opioid receptor; test: Displacement of [3H]diprenorphine from human cloned mu opioid receptor
[3] = biological target: Delta-type opioid receptor (Homo sapiens, UniProt P41143); test: Displacement of [3H]diprenorphine from human cloned delta opioid receptor
[4] = biological target: Kappa-type opioid receptor (Homo sapiens, UniProt P41145); test: Displacement of [3H]diprenorphine from human cloned kappa opioid receptor
Kappa-type opioid receptor, sequence (P41145 whole entry): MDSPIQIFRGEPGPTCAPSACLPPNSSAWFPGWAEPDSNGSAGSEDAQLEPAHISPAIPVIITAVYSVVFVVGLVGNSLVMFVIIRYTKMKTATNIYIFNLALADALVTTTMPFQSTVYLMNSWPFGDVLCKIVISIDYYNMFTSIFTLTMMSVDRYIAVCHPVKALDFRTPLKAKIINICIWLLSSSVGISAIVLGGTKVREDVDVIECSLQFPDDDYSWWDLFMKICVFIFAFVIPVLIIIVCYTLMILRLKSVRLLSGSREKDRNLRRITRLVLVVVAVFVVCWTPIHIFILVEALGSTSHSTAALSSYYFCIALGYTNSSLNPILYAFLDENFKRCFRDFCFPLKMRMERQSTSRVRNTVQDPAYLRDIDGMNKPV

Delta-type opioid receptor, sequence (P41143 whole entry): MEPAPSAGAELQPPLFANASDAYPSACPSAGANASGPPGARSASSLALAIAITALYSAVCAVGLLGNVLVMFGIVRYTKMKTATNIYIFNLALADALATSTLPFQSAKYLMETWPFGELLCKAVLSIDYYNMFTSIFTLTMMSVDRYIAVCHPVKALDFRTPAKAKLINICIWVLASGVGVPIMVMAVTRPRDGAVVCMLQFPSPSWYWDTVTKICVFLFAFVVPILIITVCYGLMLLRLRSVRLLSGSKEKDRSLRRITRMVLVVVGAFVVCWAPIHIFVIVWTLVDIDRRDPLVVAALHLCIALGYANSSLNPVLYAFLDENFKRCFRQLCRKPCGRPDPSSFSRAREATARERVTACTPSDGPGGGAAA
T1 sequence (P35372 whole entry): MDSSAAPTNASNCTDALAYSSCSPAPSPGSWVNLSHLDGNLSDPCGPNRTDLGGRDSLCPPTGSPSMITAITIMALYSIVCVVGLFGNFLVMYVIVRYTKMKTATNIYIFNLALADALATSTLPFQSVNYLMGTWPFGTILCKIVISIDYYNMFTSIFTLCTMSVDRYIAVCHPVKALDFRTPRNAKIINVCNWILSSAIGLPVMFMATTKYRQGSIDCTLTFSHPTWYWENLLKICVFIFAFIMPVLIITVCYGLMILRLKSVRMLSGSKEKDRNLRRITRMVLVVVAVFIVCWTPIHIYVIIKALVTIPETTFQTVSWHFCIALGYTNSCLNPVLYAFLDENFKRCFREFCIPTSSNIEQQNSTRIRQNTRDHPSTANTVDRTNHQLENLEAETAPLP

Row | SMILES | IC50 [1] [nM] | Ki [2] [nM] | Ki [3] [nM] | Ki [4] [nM]
1 | C[C@H]1CN(CCc2ccccc2)[C@H](CCN2CCCC2)C[C@@]1(C)c1cccc(O)c1 | > 1000 | > 1000 | > 1000 | > 1000
2 | CCC[C@@H]1C[C@@](C)(c2cccc(O)c2)[C@@H](C)CN1 | > 1000 | 560 | > 1000 | 690
3 | CCC[C@@H]1C[C@@](C)(c2cccc(O)c2)[C@@H](C)CN1Cc1ccccc1 | 170 | 700 | 880 | 360
4 | C[C@H]1CN(CCc2ccccc2)[C@H](CCc2ccccc2)C[C@@]1(C)c1cccc(O)c1 | 210 | 160 | 610 | 790
5 | C[C@H]1CN(CCc2ccccc2)[C@H](c2ccccc2)C[C@@]1(C)c1cccc(O)c1 | > 1000 | 280 | 260 | 290
6 | C[C@H]1CN(CCc2ccccc2)[C@H](CCN)C[C@@]1(C)c1cccc(O)c1 | 390 | 780 | > 1000 | 510
7 | CCC[C@@H]1C[C@@](C)(c2cccc(O)c2)[C@@H](C)CN1CCCc1ccccc1 | 16 | 19 | 180 | 74
8 | C[C@H]1CN(CCc2ccccc2)[C@H](CCNC(=O)c2ccccc2)C[C@@]1(C)c1cccc(O)c1 | 130 | 59 | 710 | 200
9 | CCC[C@@H]1C[C@@](C)(c2cccc(O)c2)[C@@H](C)CN1CCC | 320 | 430 | > 1000 | 360
10 | CCCCN1C[C@H](C)[C@](C)(c2cccc(O)c2)C[C@H]1CCC | 290 | 550 | > 1000 | 610
11 | CCCCCN1C[C@H](C)[C@](C)(c2cccc(O)c2)C[C@H]1CCC | 210 | 380 | > 1000 | 570
12 | CCCCCCN1C[C@H](C)[C@](C)(c2cccc(O)c2)C[C@H]1CCC | 39 | 47 | 340 | 150
13 | CCCC[C@@H]1C[C@@](C)(c2cccc(O)c2)[C@@H](C)CN1CCc1ccccc1 | 120 | 110 | 580 | 200
14 | CCC[C@@H]1C[C@@](C)(c2cccc(O)c2)[C@@H](C)CN1C | 170 | 520 | > 1000 | 220
15 | CCC[C@@H]1C[C@@](C)(c2cccc(O)c2)[C@@H](C)CN1CC | 100 | – | > 1000 | 270
16 | C[C@H]1CN(CCc2ccccc2)[C@H](Cc2ccccc2)C[C@@]1(C)c1cccc(O)c1 | 280 | 290 | 800 | 920
17 | C[C@@H]1C[C@@](C)(c2cccc(O)c2)[C@@H](C)CN1CCc1ccccc1 | 50 | 15 | 65 | 100
18 | CC[C@@H]1C[C@@](C)(c2cccc(O)c2)[C@@H](C)CN1CCc1ccccc1 | 90 | 75 | 680 | 710
19 | CCC[C@@H]1C[C@@](C)(c2cccc(O)c2)[C@@H](C)CN1CCc1ccccc1 | 15 | 20 | 120 | 110
20 | C[C@H]1CN(CCc2ccccc2)[C@H](CCCc2ccccc2)C[C@@]1(C)c1cccc(O)c1 | 360 | 230 | 320 | 260
21 | CCCCCCCN1C[C@H](C)[C@](C)(c2cccc(O)c2)C[C@H]1CCC | 9 | 13 | 80 | 57
22 | CC(=O)NCC[C@@H]1C[C@@](C)(c2cccc(O)c2)[C@@H](C)CN1CCc1ccccc1 | 130 | 190 | > 1000 | 620
23 | CC(C)[C@@H]1C[C@@](C)(c2cccc(O)c2)[C@@H](C)CN1CCc1ccccc1 | 620 | 270 | > 1000 | > 1000
